# Measurements published in patent publication US12264356B2, “Method for determining sensitivity to SGLT2 inhibitor and sensitivity marker for SGLT2 inhibitor” (NIHON UNIVERSITY, priority 2019, dated 2025).
# Test system: patients suffering from coronary artery disease complicated with type 2 diabetes
# Test: Administration of SGLT2 inhibitor (50 mg Ipragliflozin) for 3 months; changes in individual indicators before and after administration
# Type: in vivo, human
# Settings: for 1,5-AG after administration of SGLT2 inhibitor: P <0.001
# Protocol: Thirty patients suffering from coronary artery disease complicated with type 2 diabetes (28 male patients and 2 female patients; average age: 70.5±8.1 years old) who did outpatient visit and could not sufficiently control their blood glucose level only by administration with an oral hypoglycemic agent were used as subjects. Patients whose casual urinary sugar was positive before administration of the agent were excluded from the subjects. The aforementioned patients were administered with the SGLT2 inhibitor (50 mg Ipragliflozin; 30 cases) alone or in combination with other oral hypoglycemic agents for 3 months. In the additional administration groups, the antidiabetic agents used in combination with the SGLT2 inhibitor were 10 cases of sulfonylurea drugs, 19 cases of DPP-4 inhibitors, 9 cases of thiazolidine drugs, and 4 cases of metformin. The average number of the combined agents was 2.4. During the observation period, the combined antidiabetic agents were not changed.
# Before administration of the SGLT2 inhibitor and 3 months after the first administration, 1,5-AG, HbA1c, casual urinary sugar (U-Sugar), LDL cholesterol (LDL-C), hematocrit (Ht), NT-proBNP, and eGFR (estimated glomerular filtration rate) were measured, and changes in individual indicators before and after the administration were examined. Moreover, regarding cases in which the 1,5-AG value before administration of the SGLT2 inhibitor was less than 13 μg/mL (19 male patient cases), changes in individual indicators before and after the administration were examined.
# 1,5-AG was measured by an enzymatic method (the aforementioned Lana 1,5AG Auto Liquid, manufactured by Nippon Kayaku Co., Ltd.); HbA1c was measured by an HPLC method (manufactured by Tosoh Co., Ltd.); casual urinary sugar was measured by a test paper method (manufactured by Eiken Chemical Co., Ltd.); and LDL cholesterol was measured by an enzymatic method (manufactured by SEKISUI MEDICAL CO., LTD.) and NT-pro BNP was measured by an ELC-EIA method (manufactured by Roche Diagnostics K. K.).
# In Table 5 and Table 6, the results are shown with mean±SD, and for statistical analyses, a paired t-test was applied, and p<0.05 was defined to be statistically significant.
smiles,measurement,setting,value
OC[C@H]1O[C@@H](c2ccc(F)c(Cc3cc4ccccc4s3)c2)[C@H](O)[C@@H](O)[C@@H]1O [Ipragliflozin],"1,5-AG after administration of SGLT2 inhibitor","19 male patients with 1,5-AG less than 13 μg/mL before administration, 50 mg, 3 months, mean ± SD, before 8.6 ± 2.9",1.7 ± 0.8 µg/mL
same,HbA1c after administration of SGLT2 inhibitor,"19 male patients with 1,5-AG less than 13 μg/mL before administration, 3 months, before 7.2 ± 0.8, P = 0.13",6.8 ± 0.6
same,"1,5-AG after administration of SGLT2 inhibitor","30 patients, 50 mg, 3 months after first administration, mean ± SD, before administration 12.8 ± 6.7",2.5 ± 2.0
same,HbA1c after administration of SGLT2 inhibitor,"30 patients, 50 mg, 3 months, mean ± SD, before 7.0 ± 0.8, P = 0.40",7.2 ± 1.2
